In patent US20050147959A1, “Tissue analogs for in vitro testing and method of use therefor” (priority 2002, published 2005):

Key:
[1] = test system: cartilage analogs (human nasal septal chondrocytes on microcarriers); experiment: Immunoperoxidase staining for proteoglycans in chondrocytes from cartilage analogs; assay type: cell-based; details: two days incubation; TGF-β1 10 ng/ml, Ibuprofen 140 μg/ml
Procedure: A preliminary experiment was conducted to analyze the effect of agents such as growth factors (TGF-β1) and non-steroidal anti-inflammatory drugs (NSAIDS; Ibuprofen). Human chondrocytes from donors undergoing nasal septal defect surgery were isolated by enzymatic digestion. The cells were seeded onto microcarriers at approximately 4×10^3 cells/cm^2, and incubated in spinner flasks at 60 rpm and at 37° C. and 5% CO2 until the cells reach confluency at about 14 days. At this point, the chondrocytes produce extracellular matrix-like products consisting of type II collagen, high-molecular-weight proteoglycans and aggrecan. The constructs also start to form microaggregates. These aggregates are referred to here as “cartilage analogs”.
Equivalent aliquots of these analogs were transferred to six 25-ml spinner flasks. Aliquots (5 ml) of control medium (no additive), or medium containing human platelet TGF-β1 (10 ng/ml; Sigma Chemical Co., St. Louis, Mo.) or Ibuprofen (140 μg/ml; Sigma) were added to duplicate flasks. TGF-β1 is a growth factor known to stimulate proteoglycan synthesis in chondrocyte cultures and cartilage explant cultures, while Ibuprofen is an anti-inflammatory drug known to inhibit proteoglycan synthesis. […] The cultures were incubated for two days. […]

[2] = test system: cartilage analogs (human nasal septal chondrocytes on microcarriers); experiment: De novo proteoglycan synthesis by 35S-sulfate incorporation in cartilage analogs cultured in spinner flasks; assay type: cell-based; details: for sulfate incorporation, cell-associated (non-secreted) fraction, compared to controls: Ibuprofen 140 μg/ml; for de novo proteoglycan synthesis compared to the control (FIG. 8): subsequent study with PPS5, 35S label during last 24 hours of culture
Procedure: A preliminary experiment was conducted to analyze the effect of agents such as growth factors (TGF-β1) and non-steroidal anti-inflammatory drugs (NSAIDS; Ibuprofen). Human chondrocytes from donors undergoing nasal septal defect surgery were isolated by enzymatic digestion. The cells were seeded onto microcarriers at approximately 4×10^3 cells/cm^2, and incubated in spinner flasks at 60 rpm and at 37° C. and 5% CO2 until the cells reach confluency at about 14 days. […] These aggregates are referred to here as “cartilage analogs”.
Equivalent aliquots of these analogs were transferred to six 25-ml spinner flasks. Aliquots (5 ml) of control medium (no additive), or medium containing human platelet TGF-β1 (10 ng/ml; Sigma Chemical Co., St. Louis, Mo.) or Ibuprofen (140 μg/ml; Sigma) were added to duplicate flasks. TGF-β1 is a growth factor known to stimulate proteoglycan synthesis in chondrocyte cultures and cartilage explant cultures, while Ibuprofen is an anti-inflammatory drug known to inhibit proteoglycan synthesis. […] The cultures were incubated for two days. 24 hours prior to terminating the cultures, 300 μCi of ^35S—Na2SO4 (NEN Life Science Products, Boston, Mass.) was added to each flask to measure incorporation into proteoglycans during the last 24 hours of culture.
Following termination of the cultures, cells were pelleted by centrifugation and proteoglycans were extracted from the supernatant medium and the cell fraction with 4 M guanidine HCl for 24 hours at 4° C. Guanidine HCl extracts were dialyzed extensively against deionized class I water using 6,000 Da cut-off dialysis tubing (The Spectrum Companies, Gardena, Calif.). Post-dialysis volumes were measured and triplicate 100 μl samples were counted in a LS-6500 Liquid Scintillation Counter (Beckman Instruments, Inc., Palo Alto, Calif.) using Cytoscint-ES Cocktail (ICN Research Products, Costa Mesa, Calif.). The total ^35SO4 incorporation was expressed as cpm per 10^6 cells. Another set of dialyzed samples were dried on a Speed-Vac (Savant, Inc., Farmingdale, N.Y.) and was then reconstituted in sample buffer consisting of 1% sodium dodecylsulfate, 30% sucrose and 0.025% brophenol blue. The samples were boiled for 5 min and then loaded on an 0.75% agarose gel in electrophoresis buffer. After electrophoresis, the gel was treated with Entensify (NEN Life Science Products), dried and autoradiographed at −70° C.

[3] = preliminary experiment, two days, 35S label during last 24 hours, TGF-β1 10 ng/ml

| Molecule | immunostaining for proteoglycans compared to control cells [1] | sulfate incorporation, cell-associated (non-secreted) fraction, compared to controls [2, 3] | de novo proteoglycan synthesis compared to the control (FIG. 8) [2] | sulfate incorporation, media-associated (secreted) fraction, compared to controls [2, 3] |
| --- | --- | --- | --- | --- |
| CC(C)Cc1ccc(C(C)C(=O)O)cc1 (stereo not shown) [Ibuprofen, reference compound] | more faint immunostaining | decreased the cell-associated sulfate incorporation | decreased proteoglycan synthesis |  |
| TGF-β1: human platelet TGF-β1, a growth factor known to stimulate proteoglycan synthesis in chondrocyte cultures | More intense immunostaining | higher sulfate incorporation | enhanced protoglycan synthesis | higher sulfate incorporation |
